Results: patent publication EP2812315B1, “PYRROLIC DERIVATIVES, PROCESSES FOR PREPARING THE SAME AND THEIR USES AS A DRUG” (Universite Joseph Fourier, priority 2012, dated 2013)
In brackets after ≈: the same amount, converted by molar mass.

Key:
Assay type in all cases: cell-based
[1] = test system: Staphylococcus aureus (SA-1199B, NorA); assay: Other MIC determination, microdilution method (CLSI M07-A9) with modifications; conditions: 18 h
Method: (§1) The microdilution method recommended by the Clinical and Laboratory Standard Institute [M07-A9, Vol.32, N°2] was used with the following modifications.
(§2) Bacterial inocula were prepared in Mueller Hinton broth (MH2, BioMérieux, Marcy L'Etoile, France). They were dispensed in 96 well microtiter plates (10^6 CFU/ml of final inoculum, 192 µL per well).
(§3) To avoid cross-contaminations in microtiter plates, one row was left blank between each strain tested. Microplates were incubated for 18h at 37 °C in ambient air. Then MICs were read visually and, in case of visual reading difficulties, confirmed using a spectrophotometer at a wavelength of 630 nm (BioTek® EL808 Absorbance Microplate Reader). MICs corresponded to the minimum pyrrolic compound concentrations that allowed complete visual growth inhibition of bacteria. Drug-free cultures served as growth controls.
(§4) We used four Staphylococcus aureus strains. Two reference strains were provided by the French reference center for Staphylococcus spp. (Lyon, France), including one methicillin-susceptible (MSSA 476) and one methicillin-resistant (MRSA 252) S. aureus strains. The two remaining S. aureus strains were purchased from the CRBIP (Centre de Ressources Biologiques de l'Institut Pasteur): a vancomycin-intermediate strain (ATCC 106414) and a S. aureus strain (SA-1199B) resistant to fluoroquinolones due to overexpression of the NorA multidrug efflux pump. Coagulase-negative Staphylococcus strains included three reference strains purchased from CRBIP: a methicillin-susceptible S. epidermidis strain (ATCC 12228), a methicillin-resistant S. epidermidis strain (ATCC 49461), and a methicillin-susceptible S. sciuri strain (ATCC 29061). We also used 37 clinical strains belonging to the following coagulase-negative Staphylococcus species: S. arlettae (two strains), S. capitis (nine strains), S. epidermidis (one strain), S. haemolyticus (six strains), S. hominis (eight strains), S. lugdunensis (one strain), S. massiliensis (one strain), S. pettenkoferi (two strains), S. saprophyticus (two strains), S. simulans (one strain), and S. warneri (four strains) . Identification of the clinical strains was first obtained using VITEK® 2 System (Biomérieux) and confirmed by amplification and sequencing of the tuf gene (Reference: Bergeron, M., O. Dauwalder, M. Gouy, A.-M. Freydiere, M. Bes, H. Meugnier, Y. Benito, J. Etienne, G. Lina, F. Vandenesch, and S. Boisset. Species identification of staphylococci by amplification and sequencing of the tuf gene compared to the gap gene and by matrix-assisted laser desorption ionization time-of-flight mass spectrometry, Eur. J. Clin. Microbial. Infect. Dis. 2011, 30, 343-354).
The activity of pyrrolic compounds 3c, 3e-3j and 3n was first tested against 12 Staphylococcus sp. strains, including 7 reference strains and five clinical strains. The MICs of these compounds against Staphylococcus aureus ATCC 106414 (VISA) and Staphylococcus epidermidis ATCC 12228 are in accordance with those described in Tables I and II.

[2] = test system: Staphylococcus aureus ATCC 33592 (MRSA); assay: MIC determination, microdilution method (CLSI M07-A8); conditions: 5 x 10^5 CFU/mL, 18 hours incubation
Summary of the method: (§5)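 Broth microdilution per CLSI M07-A8 in Mueller Hinton broth, with 10% sheep blood added for H. influenzae; final inoculum 5 x 10^5 CFU/mL and two-fold compound dilutions over 0.25-64 mg/L. Incubation was at 37°C, under 5% CO2 for H. influenzae only. MIC was the lowest concentration giving complete visual growth inhibition at 18 h.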

[3] = test system: Staphylococcus aureus ATCC 9144; assay: as above; conditions: ATCC9144, 5 x 10^5 CFU/mL, 18 hours incubation
Summary of the method: as §5

[4] = test system: Staphylococcus aureus ATCC 6538; assay: as above; conditions: ATCC6538, 5 x 10^5 CFU/mL, 18 hours incubation
Summary of the method: as §5

[5] = test system: Staphylococcus aureus CIP 103428; assay: as above; conditions: CIP103428, 5 x 10^5 CFU/mL, 18 hours incubation
Summary of the method: as §5

[6] = test system: Staphylococcus epidermidis CIP 103627; assay: as above; conditions: CIP103627, 5 x 10^5 CFU/mL, 18 hours incubation
Summary of the method: as §5

[7] = test system: Staphylococcus aureus CIP 65.6; assay: as above; conditions: CIP65, 5 x 10^5 CFU/mL, 18 hours incubation
Summary of the method: as §5

[8] = test system: Staphylococcus aureus ATCC 106414 (VISA); assay: as above; conditions: 5 x 10^5 CFU/mL, 18 hours incubation
Summary of the method: as §5

[9] = test system: Staphylococcus aureus CIP 65.25 (MRSA); assay: as above; conditions: 5 x 10^5 CFU/mL, 18 hours incubation
Summary of the method: as §5

[10] = test system: Staphylococcus epidermidis CIP 81.55; assay: as above; conditions: CIP81, 5 x 10^5 CFU/mL, 18 hours incubation
Summary of the method: as §5

[11] = test system: Staphylococcus hominis (CHUG-Shom5); assay: Other MIC determination, microdilution method (CLSI M07-A9) with modifications; conditions: clinical strain
Method: as §1, §2, §3, §4
(§6) The activity of the pyrrolic compounds 3c and 3i was further tested against 32 clinical strains belonging to 11 coagulase-negative Staphylococcus species.

[12] = test system: Staphylococcus massiliensis (CHUG-Smas1); assay: as above; conditions: clinical strain
Method: as §1, §2, §3, §4, §6

[13] = test system: Staphylococcus haemolyticus (CHUG-Shae7); assay: as above
Method: as §1, §2, §3, §4, §6

[14] = test system: Staphylococcus arlettae (CHUG-Sarl1); assay: as above; conditions: clinical strain
Method: as §1, §2, §3, §4, §6

[15] = test system: Staphylococcus hominis (CHUG-Shom7); assay: as above; conditions: clinical strain
Method: as §1, §2, §3, §4, §6

[16] = test system: Staphylococcus hominis (CHUG-Shom2); assay: as above; conditions: clinical strain
Method: as §1, §2, §3, §4, §6

[17] = test system: Staphylococcus capitis (CHUG-Scapi2); assay: as above; conditions: clinical strain
Method: as §1, §2, §3, §4, §6

[18] = test system: Staphylococcus capitis (CHUG-Scapi7); assay: as above; conditions: clinical strain
Method: as §1, §2, §3, §4, §6

[19] = test system: Staphylococcus hominis (CHUG-Shom4); assay: as above; conditions: clinical strain
Method: as §1, §2, §3, §4, §6

Compound	MIC [1] [µg/mL]	MIC [2] [µg/mL]	MIC [3] [µg/mL]	MIC [4] [µg/mL]	MIC [5] [µg/mL]	MIC [6] [µg/mL]	MIC [7] [µg/mL]	MIC [8] [µg/mL]	MIC [9] [µg/mL]	MIC [10] [µg/mL]	MIC [11] [µg/mL]	MIC [12] [µg/mL]	MIC [13] [µg/mL]	MIC [14] [µg/mL]	MIC [15] [µg/mL]	MIC [16] [µg/mL]	MIC [17] [µg/mL]	MIC [18] [µg/mL]	MIC [19] [µg/mL]
CC(=O)c1c(C)[nH]c(C(c2[nH]c(C)c(C(C)=O)c2C)c2csc3ccccc23)c1C [3i]	1 (≈ 2.39 µM)	0.5 (≈ 1.19 µM)	1 (≈ 2.39 µM)	0.5 (≈ 1.19 µM)	0.5 (≈ 1.19 µM)	> 128	0.5 (≈ 1.19 µM)	0.5 (≈ 1.19 µM)	1 (≈ 2.39 µM)	> 128	16 (≈ 38.2 µM)	> 16	4 (≈ 9.56 µM)	> 16	8 (≈ 19.1 µM)	> 16	2 (≈ 4.78 µM)	1 (≈ 2.39 µM)	16 (≈ 38.2 µM)
CC(=O)c1c(C)[nH]c(C(c2ccc(F)cc2)c2[nH]c(C)c(C(C)=O)c2C)c1C [3g]	8 (≈ 21 µM)																		
COC(=O)c1cccc(C(c2[nH]c(C)c(C(C)=O)c2C)c2[nH]c(C)c(C(C)=O)c2C)c1 [3j, Methyl-3-[bis(4-acetyl-3,5-dimethyl-1H-pyrrol-2-yl)methyl]benzoate]	8 (≈ 19 µM)																		
CC(=O)c1c(C)[nH]c(C(c2ccc(Cl)cc2)c2[nH]c(C)c(C(C)=O)c2C)c1C [3c]		4 (≈ 10.1 µM)	4 (≈ 10.1 µM)	2 (≈ 5.04 µM)	8 (≈ 20.2 µM)	> 128	4 (≈ 10.1 µM)	2 (≈ 5.04 µM)	2 (≈ 5.04 µM)	> 128	8 (≈ 20.2 µM)	> 32	16 (≈ 40.3 µM)	> 32	> 32	> 32	16 (≈ 40.3 µM)	8 (≈ 20.2 µM)	> 32
CC(=O)c1c(C)[nH]c(C(c2[nH]c(C)c(C(C)=O)c2C)c2cccc3ccccc23)c1C [3h]	2 (≈ 4.85 µM)	1 (≈ 2.42 µM)	8 (≈ 19.4 µM)	1 (≈ 2.42 µM)	1 (≈ 2.42 µM)	> 128	1 (≈ 2.42 µM)	1 (≈ 2.42 µM)	1 (≈ 2.42 µM)	> 128									
CC(=O)c1c(C)[nH]c(C(c2cc3ccccc3s2)c2[nH]c(C)c(C(C)=O)c2C)c1C [3f]	2 (≈ 4.78 µM)	8 (≈ 19.1 µM)	2 (≈ 4.78 µM)	2 (≈ 4.78 µM)	2 (≈ 4.78 µM)	> 128	2 (≈ 4.78 µM)	2 (≈ 4.78 µM)	2 (≈ 4.78 µM)	> 128									
CC(=O)c1c(C)[nH]c(C(c2cc3ccccc3o2)c2[nH]c(C)c(C(C)=O)c2C)c1C [3e]		4 (≈ 9.94 µM)	4 (≈ 9.94 µM)	4 (≈ 9.94 µM)	4 (≈ 9.94 µM)	> 128	4 (≈ 9.94 µM)	4 (≈ 9.94 µM)	2 (≈ 4.97 µM)	> 128									
